# Results: patent publication US20220370416A1, “COMPOUNDS AND METHODS FOR TARGETED DEGRADATION OF KRAS” (Arvinas Operations, Inc., priority 2020, published 2022)
# What was measured:
# Assay type in all cases: cell-based
# KRAS^G12C [1] = target: T1, KRAS^G12C (Homo sapiens, UniProt P01116, G12C); assay: KRAS^G12C degradation by immunoblot in NCI-H23 cells; design: MRTX849-VHL bifunctional compounds engage and degrade endogenous KRAS^G12C in NCI-H2030 cells; endogenous in cells; host or cells: NCI-H2030, NCI-H358, MIA PaCa-2, SW1573, NCI-H23; conditions: for KRAS, two-way ANOVA significance vs DMSO: FIG. 9B
# Experimental: (§1) NCI-H2030 (CRL-5914), MIA PaCa-2 (CRL-1420), NCI-H23 (CRL-5800), NCI-H358 (CRL-5807), and HCT-116 (CCL-247) cells were obtained from ATCC, expanded immediately, and frozen down. Vials were thawed and used within 20 passages. SW1573 cells were a gift from Arvinas and were handled in the same manner. NCI-H2030, NCI-H23, and NCI-H358 were cultured in RPMI (ATCC30-2001) supplemented with 10% FBS (Biological Industries; cat. no. S1480) and 1% Penicillin-Streptomycin (ThermoFisher; cat. no. 15140122). HCT-116 cells were maintained in high glucose DMEM (ThermoFisher; cat. no. 11965084) supplemented as above. MIA PaCa-2 cells were cultured in high glucose DMEM supplemented with 10% FBS, 2.5% horse serum (ThermoFisher; cat. no. 26050-088; lot 2109875), and 1% Penicillin-Streptomycin. SW1573 cells were maintained in DMEM/F12 Nutrient Mix with GlutaMAX supplement (ThermoFisher; cat. no. 10565018) with 10% FBS and 1% Penicillin-Streptomycin added. DPBS (ThermoFisher; cat. no. 14190250) was used to wash cells and 0.25% Trypsin-EDTA (ThermoFisher; cat. no. […]) was used to detach cells for passaging. […] The VHL ligand was generously provided by Arvinas.
# (§2) Between 2.5×10^5 and 6.0×10^5 cells were seeded into 6-well plates (Corning; cat. no. 353046). The next day, media was removed and cells were treated with 2.5 μM LC-2 for 1, 2, 4, 8, 12, or 24 hours. […] For 24-hour time course experiments, cells were treated at the indicated times and concurrently lysed in RIPA buffer supplemented as described previously. For longer time course experiments and time courses in which cells were treated with LC-2 or LC-2 Epimer, cells were concurrently treated with either compound, then lysed by scraping in RIPA buffer at the indicated time points.
# (§3) Between 2.5×10^5 and 5.0×10^5 cells were seeded into 6-well plates. The next day cells were pretreated with DMSO, 500 μM or 1 mM VHL ligand, 1 μM epoxomicin, 1 μM […], or 100 nM […] bafilomycin A1 for 1 hour. Media was then removed and cells were treated with DMSO, 2.5 μM LC-2 plus DMSO, 2.5 μM LC-2 Epimer plus DMSO, or co-treated with 2.5 μM LC-2 and the corresponding competitor/inhibitor. H2030 cells were treated for 4 hours and H23 cells were treated for 24 hours, after which cells were lysed by scraping in RIPA buffer supplemented as described previously.
# (§4) Cell lysates were clarified at 21000×g for 15 mins at 4° C. Protein levels were quantified using a 50:1 mixture of bicinchoninic acid solution (Millipore Sigma; cat. no. B9643) and 4% (w/v) copper(II) sulfate solution (Millipore Sigma; cat. no. C2284) incubated at 37° C. for 30 mins. Absorbance values at 560 nm were read on an EnVision 2101 Multilabel Reader (PerkinElmer). Proteins were separated using 26 well Criterion TGX precast 4-15% (cat. no. 5671085) or 8-16% (cat. no. 5671105) gradient midi gels. After separation, proteins were transferred to nitrocellulose or PVDF membranes at 76 V for 2 hours at 4° C. Blots were then blocked in 5% milk in tris-buffered saline with Tween-20 (TBST; 20 mM Tris, 150 mM NaCl, 0.02% Tween-20). After blocking, blots were incubated in primary antibody overnight (12-18 hours) at 4° C. or for 2 hours at room temperature with mild agitation at the manufacturer's indicated dilution in either 5% milk or 5% BSA in TBST. Blots were then washed thrice with TBST for 5 mins at room temperature. After washing, blots were incubated with 1:5,000-1:10,000 of donkey anti-rabbit (GE Life Sciences; NA934) or sheep anti-mouse (GE Life Sciences; NA931) secondary antibody diluted in 5% milk for 1 hour at room temperature with mild agitation. Blots were again washed thrice with TBST for 5 mins. Chemiluminescent signal was generated using Amersham ECL Prime Western Blotting Detection Reagant (GE Life Sciences; cat. no. RPN2232) or SuperSignal West Femto Maximum Sensitivity Substrate (ThermoFisher; cat. no. 34095). Images were obtained using a Bio-Rad ChemiDoc Imager.
# KRAS^G12C [2] = target: T1, KRAS^G12C; assay: KRAS^G12C engagement and degradation by immunoblot in NCI-H2030 cells; design: MRTX849-VHL bifunctional compounds engage and degrade endogenous KRAS^G12C in NCI-H2030 cells; endogenous in cells; host or cells: NCI-H2030, NCI-H358, MIA PaCa-2, SW1573, NCI-H23; conditions: for rescue of LC-2 induced KRAS^G12C degradation by inhibitor: NCI-H2030, 1 μM inhibitor before 2.5 μM LC-2
# Experimental: as §1, §2, §3, §4
# KRAS^G12C [3] = target: T1, KRAS^G12C; assay: Engagement and degradation of endogenous KRAS^G12C in NCI-H2030 cells (blot quantitation); design: MRTX849-VHL bifunctional compounds engage and degrade endogenous KRAS^G12C in NCI-H2030 cells; endogenous in cells; host or cells: NCI-H2030; conditions: dose response (FIG. 2B)
compound,measurement,setting,value
"CO/C1=C\C(C)=C\[C@@H](C)[C@@H](O)[C@@H](C)C/C(C)=C/C=C/[C@H](OC)[C@@H]([C@@H](C)[C@@H](O)[C@H](C)[C@@]2(O)C[C@@H](O)[C@H](C)[C@@H](C(C)C)O2)OC1=O [BafA1, bafilomycin A1, reference compound]",rescue of LC-2 induced KRAS^G12C degradation by inhibitor,"KRAS^G12C [1]; NCI-H23, pre-treatment before LC-2",unable to rescue
"NS(=O)(=O)OC[C@@H]1C[C@@H](n2ccc3c(N[C@H]4CCc5ccccc54)ncnc32)C[C@@H]1O [MLN924, reference compound]",rescue of LC-2 induced KRAS^G12C degradation by inhibitor,KRAS^G12C [2],rescued KRAS^G12C levels
"CC[C@H](C)[C@H](NC(=O)[C@H]([C@@H](C)CC)N(C)C(C)=O)C(=O)N[C@H](C(=O)N[C@@H](CC(C)C)C(=O)[C@@]1(C)CO1)[C@@H](C)O [epoxomicin, reference compound]",rescue of LC-2 induced KRAS^G12C degradation by inhibitor,KRAS^G12C [2],rescued KRAS^G12C levels
"C=C(F)C(=O)N1CCN(c2nc(OC[C@@H]3CCCN3CCC(=O)NCCOCCOCCC(=O)N[C@H](C(=O)N3C[C@H](O)C[C@H]3C(=O)NCc3ccc(-c4scnc4C)cc3)C(C)(C)C)nc3c2CCN(c2cccc4cccc(Cl)c24)C3)C[C@@H]1CC#N [LC-1, (2S,4R)-1-((S)-2-(tert-butyl)-16-((S)-2-(((7-(8-chloronaphthalen-1-yl)-4-((S)-3-(cyanomethyl)-4-(2-fluoroacryloyl)piperazin-1-yl)-5,6,7,8-tetrahydropyrido[3,4-d]pyrimidin-2-yl)oxy)methyl)pyrrolidin-1-yl)-4,14-dioxo-7,10-dioxa-3,13-diazahexadecanoyl)-4-hydroxy-N-(4-(4-methylthiazol-5-yl)benzyl)pyrrolidine-2-carboxamide]","KRAS, two-way ANOVA significance vs DMSO","KRAS^G12C [1]; NCI-H23, 0.1 μM",N.S.
same,"KRAS, two-way ANOVA significance vs DMSO","KRAS^G12C [1]; NCI-H23, 10 μM",N.S.
same,effect on KRAS protein levels,"KRAS^G12C [2]; 10 μM, compound screen (FIG. 2C)",increased KRAS protein levels
same,"KRAS, two-way ANOVA significance vs DMSO","KRAS^G12C [2]; NCI-H2030, 10 μM, FIG. 9A",* (* p < 0.05)
same,KRAS engagement (band shift),"KRAS^G12C [2]; NCI-H2030, 24 hours, at 1, 2.5, 10, and 25 μM",clear band shift
same,reduction in KRAS levels,"KRAS^G12C [2]; NCI-H2030, 24 hours, increasing concentrations","small, non-significant reduction"
same,engagement of KRAS^G12C,KRAS^G12C [3],engages KRAS^G12C in a dose dependent manner
